Results on 31 compounds are retold here after the CombiSolv-Exp solvation set (Vermeire and Green 2021).

The series can be described thus: solvent given as SMILES.
[1] abbreviates: in CCCCCCCCC=CCCCCCCCC(=O)OCC(COC(=O)CCCCCCCC=CCCCCCCCC)OC(=O)CCCCCCCC=CCCCCCCCC

Consider `O=C(O)CCCCCCc1ccccc1`, for which the “solvation free energy, 298 K” value (in O) was -8.72 kcal/mol.
On to `CCCCCCCCCC`, for which the “solvation free energy, 298 K” value was -6.77 kcal/mol (in CCC(C)(C)OC); -6.01 kcal/mol (in CCC(C)=O); -6.85 kcal/mol (in CCCCCC); -6.34 kcal/mol (in CCCCCCCCCCCCCCCC); -5.35 kcal/mol (in CCO); -5.13 kcal/mol (in CCOC(=O)c1ccccc1C(=O)OCC). In addition, the “solvation free energy, 298 K” value runs as follows: (in CN1CCCC1=O) -4.92 kcal/mol; (in CN(C)C=O) -4.94 kcal/mol; (in COCCO) -4.75 kcal/mol; (in Cc1ccc(C)cc1) -6.68 kcal/mol; (in N#CCCCCC#N) -3.99 kcal/mol; (in O) 3.18 kcal/mol. For the same compound, the “solvation free energy, 298 K” value reads like this: (in O=CN1CCOCC1) -4.15 kcal/mol; (in OCCO) -2.19 kcal/mol; (in OCCOCCO) -3.2 kcal/mol; (in OCCOCCOCCO) -3.33 kcal/mol; (in OCCOCCOCCOCCO) -3.61 kcal/mol.
As for `CCCCCCCCCCCCCCCO`, the “solvation free energy, 298 K” value by setting is: (in CCCCOCCCC) -12.4 kcal/mol; (in O) -2.92 kcal/mol.
As for `C#CC=C`, the “solvation free energy, 298 K” value (in C1COCCO1) is -3.21 kcal/mol; the “solvation free energy, 298 K” value (in CC(C)=O) was -3.19 kcal/mol; the “solvation free energy, 298 K” value (in CC(C)CC(C)(C)C) was -2.21 kcal/mol; the “solvation free energy, 298 K” value (in CN(C)C=O) is -3.28 kcal/mol; the “solvation free energy, 298 K” value (in COC(C)=O) was -3.19 kcal/mol; the “solvation free energy, 298 K” value (in Cc1ccc(C)cc1) is -3.07 kcal/mol. In addition, for the setting “in O”, the “solvation free energy, 298 K” value came to 0.04 kcal/mol.
For the compound `CCN`, the “solvation free energy, 298 K” value (in CCCCCC) was -2.29 kcal/mol; the “solvation free energy, 298 K” value (in CCCCCCC) is -2.09 kcal/mol; the “solvation free energy, 298 K” value (in CCCCCCCC) was -2.05 kcal/mol; the “solvation free energy, 298 K” value (in CCCCCCCCCC) was -1.93 kcal/mol; the “solvation free energy, 298 K” value (in CCCCCCCCCCCCCCCC) is -2.22 kcal/mol; the “solvation free energy, 298 K” value (in O) is -4.5 kcal/mol.
`CCC(=O)Nc1ccc(Cl)c(Cl)c1`: the “solvation free energy, 298 K” value (in O) is -7.78 kcal/mol.
The same measure, in the same setting: under `COC(=O)C1CCCCC1` stands -3.3 kcal/mol.
For the compound `CCCCCl`, the “solvation free energy, 298 K” value by setting is: (in C1CCOC1) -4.57 kcal/mol; (in C1CCOCC1) -4.52 kcal/mol; (in C1COCCO1) -4.4 kcal/mol; (in C=CCCCCCCCCCCCCCC) -3.77 kcal/mol; (in CC(C)(C)O) -3.7 kcal/mol; (in CC(C)=O) -4.26 kcal/mol. Also, the “solvation free energy, 298 K” value is -3.91 kcal/mol (in CC(C)CC(C)(C)C); -3.72 kcal/mol (in CC(C)CO); -4.21 kcal/mol (in CC(C)OC(C)C); -3.72 kcal/mol (in CCC(C)O); -4.49 kcal/mol (in CCCBr); -4.05 kcal/mol (in CCCCCC). Besides, the “solvation free energy, 298 K” value (in CCCCCCC) is -3.96 kcal/mol; the “solvation free energy, 298 K” value under setting [1] was -3.93 kcal/mol; the “solvation free energy, 298 K” value (in CCCCCCCCCCCCCCCC) is -3.68 kcal/mol; the “solvation free energy, 298 K” value (in CCCCCCCCCCO) is -3.67 kcal/mol; the “solvation free energy, 298 K” value (in CCCCCCCCO) was -3.71 kcal/mol; the “solvation free energy, 298 K” value (in CCCCOC) is -4.37 kcal/mol. Moreover, the “solvation free energy, 298 K” value is -4.11 kcal/mol (in CCCCOCCCC); -3.59 kcal/mol (in CCCO); -4.23 kcal/mol (in CCCOCCC); -4.43 kcal/mol (in CCI); -4.31 kcal/mol (in CCOC(C)=O); -4.38 kcal/mol (in CCOCC). The “solvation free energy, 298 K” value runs as follows: (in COC(C)(C)C) -4.3 kcal/mol; (in ClC(Cl)(Cl)Cl) -4.31 kcal/mol; (in ClCCCl) -4.43 kcal/mol; (in Clc1ccccc1) -4.35 kcal/mol; (in O) -0.23 kcal/mol; (in [2H]O[2H]) -0.73 kcal/mol.
Regarding `CC(C)CCl`, the “solvation free energy, 298 K” value by setting is: (in C1CCOC1) -4.39 kcal/mol; (in C1CCOCC1) -4.28 kcal/mol; (in C=CCCCCCCCCCCCCCC) -3.51 kcal/mol; (in CCCCCC) -3.87 kcal/mol; (in COC(C)(C)C) -4.13 kcal/mol; (in O) 0.03 kcal/mol.
Take `COC(CCl)(OC)OC`: for the setting “in O”, the “solvation free energy, 298 K” value was -4.59 kcal/mol.
As to `O=C(O)C=Cc1ccccc1`, the “solvation free energy, 298 K” value (in O) was -8.38 kcal/mol.
Take `Cc1c(C(=O)O)cc([N+](=O)[O-])cc1[N+](=O)[O-]`: the “solvation free energy, 298 K” value is -17.5 kcal/mol (in C1CCOC1); -17.5 kcal/mol (in C1COCCO1); -16 kcal/mol (in CC(C)(C)O); -15.8 kcal/mol (in CC(C)CCO); -15.7 kcal/mol (in CC(C)CO); -16.2 kcal/mol (in CC(C)O). Also, the “solvation free energy, 298 K” value by setting is: (in CCC(C)O) -16.1 kcal/mol; (in CCCC(C)O) -15.9 kcal/mol; (in CCCCCCCCCCO) -15.3 kcal/mol; (in CCCCCCCCO) -15.6 kcal/mol; (in CCCCCCCO) -15.9 kcal/mol; (in CCCCCCO) -15.8 kcal/mol. Also, the “solvation free energy, 298 K” value runs as follows: (in CCCCCO) -16 kcal/mol; (in CCCCO) -16.1 kcal/mol; (in CCCCOC(C)=O) -16.2 kcal/mol; (in CCCO) -16.2 kcal/mol; (in CCOC(C)=O) -16.4 kcal/mol; (in COC(C)=O) -16.7 kcal/mol. In addition, under “in O”, the “solvation free energy, 298 K” value was -13.6 kcal/mol.
`Nc1ncnc2c1ncn2C1CCC(CO)O1` (stereo unspecified): the “solvation free energy, 298 K” value (in C=CCCCCCCC=C) was -14.8 kcal/mol; the “solvation free energy, 298 K” value (in C=CCCCCCCCCCCCCCC) was -14.7 kcal/mol; the “solvation free energy, 298 K” value (in O) was -20.5 kcal/mol.
Turning to `FCCF`, the “solvation free energy, 298 K” value (in CCCO) is -3.64 kcal/mol.
With `CN1CCOCC1`, for the setting “in O”, the “solvation free energy, 298 K” value was -6.32 kcal/mol.
The same measure, in the same setting: next, `CCCCCc1ccccc1`: -0.23 kcal/mol.
As for `Cc1ccc(C=O)o1`, the “solvation free energy, 298 K” value is -4.95 kcal/mol (in CCCCCCCC), -5.29 kcal/mol (in CCCCCCCCCC) and -5.5 kcal/mol (in O).
For `CCCCCCCCCCCCCCCCCCCCO`, the “solvation free energy, 298 K” value by setting is: (in CC(C)O) -16.2 kcal/mol; (in CCCCCCCCCCO) -16.4 kcal/mol; (in CCCCCCCCO) -16.4 kcal/mol; (in CCCCCCO) -16.5 kcal/mol.
For `CCCCCCCOC(C)=O`, the “solvation free energy, 298 K” value (in NC=O) is -4.84 kcal/mol and the “solvation free energy, 298 K” value (in O) was -2.07 kcal/mol.
Regarding `CCOC=O`, the “solvation free energy, 298 K” value was -2.62 kcal/mol (in C=CCCCCCCCCCCCCCC); -3.15 kcal/mol (in CC(C)O); -3.71 kcal/mol (in CCC(C)=O); -2.55 kcal/mol (in CCCCCCCCCCCCCCCC); -2.98 kcal/mol (in CCCCCCCCO); -3.33 kcal/mol (in ClC(Cl)(Cl)Cl). Also, the “solvation free energy, 298 K” value is -4.37 kcal/mol (in ClC(Cl)Cl), -2.64 kcal/mol (in O) and -2.64 kcal/mol (in [2H]O[2H]).
Regarding `CC(=O)O`, the “solvation free energy, 298 K” value is, setting by setting: (in C=CCCCCCCC=C) -2.71 kcal/mol; (in C=CCCCCCCCCCCCCCC) -2.41 kcal/mol; (in [2H]O[2H]) -6.55 kcal/mol.
In the case of `CCCCCC(=O)CC(=O)CCCCC`, the “solvation free energy, 298 K” value (in O) is -3.68 kcal/mol.
Still for that read-out and setting: under `CCOCCOC(C)=O` stands -5.31 kcal/mol; under `Clc1cc(Cl)cc(-c2cc(Cl)ccc2Cl)c1`, -2.73 kcal/mol.
The same measure, in the same setting: under `CCCCCCBr` stands 0.18 kcal/mol.
As for `C=CCC(C)C`, the “solvation free energy, 298 K” value is -3.23 kcal/mol (in C=CCCCCCCCCCCCCCC) and 1.9 kcal/mol (in O).
As for `C=CCCCCCC`, the “solvation free energy, 298 K” value reads like this: (in CC#N) -3.98 kcal/mol; (in CCC#N) -4.66 kcal/mol; (in CCCC#N) -4.42 kcal/mol; (in CCCCC(CC)COC(=O)CCCCC(=O)OCC(CC)CCCC) -4.72 kcal/mol; (in CCCCCCC) -5.17 kcal/mol; under setting [1], -4.65 kcal/mol. Also, the “solvation free energy, 298 K” value reads like this: (in CCCCCCCCO) -4.58 kcal/mol; (in CCCCOC(=O)c1ccccc1C(=O)OCCCC) -4.62 kcal/mol; (in CCN1CCCC1=O) -4.36 kcal/mol; (in CCN(CC)C(C)=O) -4.5 kcal/mol; (in CCNC(C)=O) -4.23 kcal/mol; (in CCNC=O) -3.97 kcal/mol. Further, the “solvation free energy, 298 K” value runs as follows: (in CCOC(=O)c1ccccc1C(=O)OCC) -4.11 kcal/mol; (in CN1CCCC1=O) -4.02 kcal/mol; (in CN(C)C=O) -3.89 kcal/mol; (in CNC=O) -3.6 kcal/mol; (in CS(C)=O) -3.04 kcal/mol; (in N#CCCCCC#N) -3.31 kcal/mol. In addition, the “solvation free energy, 298 K” value is, setting by setting: (in NC=O) -1.58 kcal/mol; (in NCCO) -2.07 kcal/mol; (in Nc1ccccc1) -3.82 kcal/mol; (in O) 1.93 kcal/mol; (in O=C1CCCO1) -3.53 kcal/mol; (in O=CN1CCOCC1) -3.4 kcal/mol. For the same compound, the “solvation free energy, 298 K” value (in OCCO) is -1.81 kcal/mol; the “solvation free energy, 298 K” value (in OCCOCCO) is -2.55 kcal/mol; the “solvation free energy, 298 K” value (in OCCOCCOCCO) is -2.78 kcal/mol.
As to `CCCCN(CCC)N=O`, the “solvation free energy, 298 K” value is, setting by setting: (in CC(C)CC(C)(C)C) -7.18 kcal/mol; (in O) -5.12 kcal/mol.
Regarding `O=[N+]([O-])c1cccc(Cl)c1Cl`, the “solvation free energy, 298 K” value reads like this: (in C1CCCCC1) -8.4 kcal/mol; (in CC(C)O) -8.56 kcal/mol; (in CCCCCC) -7.97 kcal/mol; (in CCCCCCC) -8.07 kcal/mol; (in CCCCO) -8.71 kcal/mol; (in CCCO) -8.65 kcal/mol. Also, the “solvation free energy, 298 K” value is -9.93 kcal/mol (in CCOC(C)=O), -9.46 kcal/mol (in ClC(Cl)(Cl)Cl) and -4.22 kcal/mol (in O).
As to `CNC(=O)c1ccccc1`, for the setting “in CC(C)CC(C)(C)C”, the “solvation free energy, 298 K” value is -7.63 kcal/mol.
As for `Cc1cc2ccccc2cc1C`, the “solvation free energy, 298 K” value runs as follows: under setting [1], -8.95 kcal/mol; (in O) -2.72 kcal/mol.
